# Laboratory results: US20230190695A1, “TRIBUTYRIN SUPPLEMENTATION PROVIDES BENEFITS FOR MENTAL WELLNESS, IMMUNE HEALTH AND FAT METABOLISM” (PHARMAVITE LLC, priority 2021, published 2023)
# Columns and labels:
# [1] = tested on: combined microbiota of 10 healthy adult human donors; assay: Colonic simulation, in vitro gut simulation model: butyrate and microbial metabolites; parameters: Indole-3-acetic acid / Indole-3-aldehyde / Indole-3-ethanol / Tryptophan / 5-Hydroxyindoleacetic acid / Tryptamine: unit not given here; conditions: for 1-Acetyl-3-indolecarboxyaldehyde / 5-Hydroxyindoleacetic acid / Indole / Indole-3-acetic acid / Indole-3-acrylic acid / Melatonin / Serotonin / Skatole / Tryptamine / Tryptophan / Indole-3-ethanol / Indole-3-aldehyde / Indole-3-propionic acid: Treatment; for average increase of butyrate as compared to the control period / average increase of butyrate: highest dose (59% of 1000 mg/day); for average increase of butyrate: vs control period
# Experimental: The impact of two doses of tributyrin on gut microbiota composition and microbial metabolites was studied in an in vitro gut simulation model using combined microbiota of 10 healthy adult human donors (5 males, 5 females, 30-60 years old, BMI<30). The retention times and pH ranges were optimized in order to obtain results that are representative for a full GIT simulation. A stabilization period was followed by a two-week control period and three weeks of treatment, where 59% of 300 mg/day or 59% of 1000 mg/day was administered daily (based on release profile described above). Samples were collected at the end of control period and treatment period. Both doses were performed in biological triplicate to account for biological variability.
# [2] = tested on: Caco-2/THP1 (colonic cells/macrophages) co-culture; assay: Caco-2/THP1 co-culture immunomodulation model; type: cell-based
# From the text: An in vitro Caco-2/THP1 (colonic cells/macrophages) co-culture model was used to assess the effect of microbial metabolites on proinflammatory or ant-inflammatory cytokines and chemokines which serve as markers for immunomodulation.
# [3] = tested on: combined microbiota of 10 healthy adult human donors; assay: Colonic simulation, in vitro gut simulation model: microbial composition
# Experimental: The impact of two doses of tributyrin on gut microbiota composition and microbial metabolites was studied in an in vitro gut simulation model using combined microbiota of 10 healthy adult human donors (5 males, 5 females, 30-60 years old, BMI<30). The retention times and pH ranges were optimized in order to obtain results that are representative for a full GIT simulation. A stabilization period was followed by a two-week control period and three weeks of treatment, where 59% of 300 mg/day or 59% of 1000 mg/day was administered daily (based on release profile described above). Samples were collected at the end of control period and treatment period. Both doses were performed in biological triplicate to account for biological variability. […] Higher ratio of Bacteroidetes:Firmicutes is associated with lean phenotype. Tributyrin treatment increases this ratio as illustrated in FIG. 4 and therefore may provide metabolic health benefit. • At species level, importantly, Akkermansia muciniphila and Faecalibacterium prausnitzii were enriched in tributyrin-treated compartments. • Akkermansia muciniphila is an acetate and propionate-producing, mucin-degrading bacteria. Its presence in the gut is associated with health benefits. An inverse relationship- between colonization of Akkermansia muciniphila and inflammatory conditions or obesity have been shown. […] Both Parabacteroides distasonis and Parabacteroides goldsteinii were stimulated in the proximal colon and distal colon for both low and high doses of tributyrin.
# C57BL/6J mice [4] = assay: Body weight and body composition by NMR; type: in vivo; conditions: for final fat as a percentage of baseline: all mice, vs combined unstressed untreated control
# Experimental: (§1) A study was conducted to evaluate tributyrin on stress and mood-related behaviors in female and male C57BL/6J mice. The animals were given immediate ad libitum access to water and standard rodent chow and were acclimated to the facility for 7 days. On study day -3, fat and muscle content was measured using nuclear magnetic resonance spectroscopy (NMR: MiniSpec NMR, Bruker LF50 Body Composition Analyzer). On study day 0, the animals were weighed, blood and fecal samples (1-2 pellets/animal) were collected, and the animals were randomized into their specific treatment group. Daily oral gavage of 4 distinct groups commenced as follows: • Treatment 1: daily PBS vehicle + no acute stress before behavioral measures • Treatment 2: daily PBS vehicle + acute stress before behavioral measures • Treatment 3: daily low-dose tributyrin (60 mg/kg/d) + acute stress before behavioral measures • Treatment 4: daily high-dose tributyrin (200 mg/kg/d) + acute stress before behavioral measures
# (§2) After 7 weeks of intervention, blood and fecal samples were collected on study day 49, and fecal collection was repeated on study days 50 and 52. On study day 52, animals assigned to the acute stress groups were acutely restrained for two hours while unstressed animals were housed singly for 140 minutes in fresh cages. […] All animals were then tested in the forced swim test (FST). A retro-orbital blood sample was collected within 15 to 30 minutes after the FST, and fecal pellets were collected (for corticosterone measurements). On study day 53, the animals were weighed, and body composition by NMR was performed a second time. The study was terminated on study day 56, blood was collected and necropsies were performed. Serum cytokine levels were evaluated in terminal serum.
# C57BL/6J mice [5] = assay: Fecal corticosterone after forced swim test; type: in vivo; conditions: male mice; 200 mg/kg/d; vs stressed vehicle control
# Experimental: as §1
# After 7 weeks of intervention, blood and fecal samples were collected on study day 49, and fecal collection was repeated on study days 50 and 52. On study day 52, animals assigned to the acute stress groups were acutely restrained for two hours while unstressed animals were housed singly for 140 minutes in fresh cages. […] Serum cytokine levels were evaluated in terminal serum. […]
# C57BL/6J mice [6] = assay: Forced swim test (FST) after acute restraint stress; type: in vivo; conditions: for time immobile in the FST: combined female + male, study day 52; for immobility in the FST: vs sex-matched untreated stressed control
# Experimental: as §1, §2
# Forced Swim Test (FST) is a test centered on a rodent’s response to unescapable stress. Results of this test have been interpreted as a measure of susceptibility to negative mood. It is commonly used to measure the effectiveness of antidepressants. Forced swim tests were performed on study day 52 for each cohort of mice.
# C57BL/6J mice [7] = assay: Cytokine concentrations in terminal serum; type: in vivo; conditions: male mice
# Experimental: as §1, §2
# C57BL/6J mice [8] = assay: Fecal metabolite analysis (GC, UHPLC-HRMS); type: in vivo
# Experimental: as §1, §2
# Gut microbiota metabolizes ingested food and supplements in the colon thereby producing various metabolites, which have an impact on several host biological processes. These metabolites generated in the colon can be measured in the feces. A panel of metabolites were measured in feces collected from experimental mice 8 weeks post-treatment. Fecal SCFA were measured by Gas Chromatography (GC) and tryptophan metabolites were measured using Ultra High Performance Liquid Chromatography High Resolution Mass Spectrometry (UHPLC-HRMS). Comparisons were made between stressed untreated mice and tributyrin treated stressed mice.
# [9] = Distal Colon, High Dose (59% of 1000 mg/day)
# [10] = Distal Colon, Low Dose (59% of 300 mg/day)
# [11] = Proximal Colon, High Dose (59% of 1000 mg/day)
# [12] = Proximal Colon, Low Dose (59% of 300 mg/day)
# [13] = DC-Low (distal colon, low dose)
# [14] = PC-High (proximal colon, high dose)
# [15] = PC-Low (proximal colon, low dose)
# [16] = proximal colon and distal colon, both low and high doses
# [17] = 60 mg/kg/d, vs stressed vehicle control
# [18] = low dose (60 mg/kg/d), 8 weeks post-treatment
structure (smiles),measurement,setting,value
CCCC(=O)OCC(COC(=O)CCC)OC(=O)CCC [tributyrin],1-Acetyl-3-indolecarboxyaldehyde,[1]; [9],< LOD
same,5-Hydroxyindoleacetic acid,[1]; [9],0.001
same,Indole,[1]; [9],< LOD
same,Indole-3-acetic acid,[1]; [9],0.644
same,Indole-3-acrylic acid,[1]; [9],< LOD
same,Melatonin,[1]; [9],< LOD
same,Serotonin,[1]; [9],< LOD
same,Skatole,[1]; [9],< LOD
same,Tryptamine,[1]; [9],0.175
same,Tryptophan,[1]; [9],0.095
same,1-Acetyl-3-indolecarboxyaldehyde,[1]; [10],< LOD
same,5-Hydroxyindoleacetic acid,[1]; [10],0.001
same,Indole,[1]; [10],< LOD
same,Indole-3-acrylic acid,[1]; [10],< LOD
same,Indole-3-ethanol,[1]; [10],0.284
same,Melatonin,[1]; [10],< LOD
same,Serotonin,[1]; [10],< LOD
same,Skatole,[1]; [10],< LOD
same,Tryptamine,[1]; [10],0.205
same,Tryptophan,[1]; [10],0.116
same,1-Acetyl-3-indolecarboxyaldehyde,[1]; [11],< LOD
same,5-Hydroxyindoleacetic acid,[1]; [11],0.008
same,Indole,[1]; [11],< LOD
same,Indole-3-acetic acid,[1]; [11],0.916
same,Indole-3-acrylic acid,[1]; [11],< LOD
same,Indole-3-aldehyde,[1]; [11],0.058
same,Indole-3-propionic acid,[1]; [11],0.01
same,Melatonin,[1]; [11],< LOD
same,Serotonin,[1]; [11],< LOD
same,Skatole,[1]; [11],< LOD
same,Tryptamine,[1]; [11],0.105
same,1-Acetyl-3-indolecarboxyaldehyde,[1]; [12],< LOD
same,5-Hydroxyindoleacetic acid,[1]; [12],0.01
same,Indole,[1]; [12],< LOD
same,Indole-3-acrylic acid,[1]; [12],< LOD
same,Indole-3-aldehyde,[1]; [12],0.06
same,Indole-3-ethanol,[1]; [12],0.266
same,Indole-3-propionic acid,[1]; [12],0.008
same,Melatonin,[1]; [12],< LOD
same,Serotonin,[1]; [12],< LOD
same,Skatole,[1]; [12],< LOD
same,Tryptamine,[1]; [12],0.118
same,butyrate levels,"[1]; both proximal colon and distal colon, on initiation of treatment",significantly enhanced
same,average increase of butyrate as compared to the control period,[1]; distal colon,78.8%
same,average increase of butyrate,[1]; distal colon,7.7 mM
same,average increase of butyrate as compared to the control period,[1]; proximal colon,91.9%
same,average increase of butyrate,[1]; proximal colon,7.4 mM
same,"IL6, treatment suspensions normalized to blank control suspensions",[2]; [13],1.13
same,"IL10, treatment suspensions normalized to blank control suspensions",[2]; [13],1.03
same,"IL-1B, treatment suspensions normalized to blank control suspensions",[2]; [13],1.07
same,"MCP1, treatment suspensions normalized to blank control suspensions",[2]; [13],1.05
same,"IL6, treatment suspensions normalized to blank control suspensions",[2]; [14],1.31
same,"IL8, treatment suspensions normalized to blank control suspensions",[2]; [14],1.03
same,"IL-1B, treatment suspensions normalized to blank control suspensions",[2]; [14],1.08
same,"MCP1, treatment suspensions normalized to blank control suspensions",[2]; [14],0.97
same,"IL6, treatment suspensions normalized to blank control suspensions",[2]; [15],1.01
same,"IL8, treatment suspensions normalized to blank control suspensions",[2]; [15],1.3
same,"IL10, treatment suspensions normalized to blank control suspensions",[2]; [15],1.06
same,"IL-1B, treatment suspensions normalized to blank control suspensions",[2]; [15],1.08
same,"TNFa, treatment suspensions normalized to blank control suspensions",[2]; [15],1.06
same,Faecalibacterium prausnitzii abundance,"[3]; PC and DC, low and high dose",enriched
same,Akkermansia muciniphila abundance,"[3]; PC and DC, low- and high-dose",enriched
same,gut microbial diversity (Simpson Diversity Index),[3]; both low and high dose,increase
same,ratio of Bacteroidetes:Firmicutes,"[3]; distal colon, low and high dose vs control (FIG. 4)",increases
same,Parabacteroides merdae ATCC 43184 abundance,[3]; proximal colon,specific stimulation
same,Tannerellaceae levels,[3]; proximal colon,increased
same,Parabacteroides distasonis abundance,[3]; [16],stimulated
same,Parabacteroides goldsteinii abundance,[3]; [16],stimulated
same,final fat as a percentage of baseline,C57BL/6J mice [4]; 60 mg/kg/d,statistically reduced
same,final fat as a percentage of baseline,C57BL/6J mice [4]; 200 mg/kg/d,statistically reduced
same,Lean:Fat ratio,C57BL/6J mice [4]; treated mice vs untreated control,significantly increased
same,fecal corticosterone levels after FST,C57BL/6J mice [5],statistical reduction
same,time immobile in the FST,"C57BL/6J mice [6]; 60 mg/kg/d oral gavage, vs stressed untreated control",reductions in time immobile in the FST were statistically significant
same,immobility in the FST,"C57BL/6J mice [6]; 60 mg/kg, females",reduced immobility
same,time immobile in the FST,"C57BL/6J mice [6]; 200 mg/kg/d oral gavage, vs stressed untreated control and vs unstressed control",reductions in time immobile in the FST were statistically significant
same,immobility in the FST,"C57BL/6J mice [6]; 200 mg/kg, males",reduced immobility
same,IL-2 in terminal serum,"C57BL/6J mice [7]; 60 mg/kg/d, vs stressed mice",reduced significantly
same,IL-4 in terminal serum,"C57BL/6J mice [7]; 60 mg/kg/d, vs stressed mice",reduced significantly
same,IFNγ in terminal serum,C57BL/6J mice [7]; [17],significantly reduced
same,MIP-1a in terminal serum,C57BL/6J mice [7]; [17],significantly reduced
same,IL-4 in terminal serum,"C57BL/6J mice [7]; 200 mg/kg/d, vs stressed mice",reduced significantly
same,MIP-1a in terminal serum,"C57BL/6J mice [7]; 200 mg/kg/d, vs stressed vehicle control",significantly reduced
same,tryptophan in feces,"C57BL/6J mice [8]; high dose (200 mg/kg/d), 8 weeks post-treatment",142.8 ± 53.4 ng/mg
same,Indole-3-acetic acid in feces,C57BL/6J mice [8]; [18],1.56 ± 1.17 ng/mg
same,tryptophan in feces,C57BL/6J mice [8]; [18],154.9 ± 98.7 ng/mg
same,fecal SCFA levels,C57BL/6J mice [8]; treated mice vs untreated stressed controls,No differences
